Patent publication US11617708B2, “Cosmetic composition capable of strengthening epidermal tight junctions for the prevention and/or treatment of atopic dermatitis” (NAOS INSTITUTE OF LIFE SCIENCE, priority 2020, dated 2023)

Tested on: claudin-1
Assay: Expression of claudin-1 by in situ immunolabelling in an in vitro cell model of atopic dermatitis (calcium-differentiated keratinocytes inhibited by alarmins)
Format: cell-based, human
Experimental: • cell type: normal human epidermal keratinocytes (NHEK; reference: Bioalternatives K34 1), used at 3rd passage—culture conditions: 37° C., 5% CO2 • culture medium: Keratinocyte-SFM complemented with Epidermal Growth Factor (or EGF) at a concentration of 0.25 ng/mL, pituitary extract (PE) at a concentration of 25 μg/mL and gentamycin at a concentration of 25 μg/mL • assay medium used for this example: Keratinocyte-SFM complemented with gentamycin at a concentration of 25 μg/mL. […]
For each condition, the analysis was carried out from 30 image quantifications (n=30) except for the control conditions produced from 60 image quantifications (n=60). A first evaluation of the results was carried out by taking all of the quantifications into account, then a second solely with the results with replicated cultures, i.e. with 3 replications (n=3), except for the control conditions which were carried out with 6 replications (n=6). […]
Labelling was quantified by measuring the intensity of fluorescence of the proteins with respect to the total number of cells identified by staining with bis-benzimide (integration of digital data by the Developer Toolbox 1.5 software, GE Health Care).
The intergroup comparisons were carried out with the aid of the bilateral unpaired Student t-assay. […] However, for n<5, the calculated data were provided by way of indication only. […]

## [Ca+2].[Cl-].[Cl-] [CaCl2]
NHEK, CaCl2 0.75 mM, without alarmins, versus not stimulated/not differentiated control
  expression of claudin-1 after differentiation with CaCl2: induced an increase in the expression of the analysed tight junctions protein (claudin-1)

## N=C(N)NCCC[C@H](N)C(=O)O [arginine]
NHEK differentiated with CaCl2 0.75 mM, compounds 1 h before alarmins (histamine 50 μM, IL-33 100 ng/mL, IL-1β 100 ng/mL), 72 h, arginine 0.02-0.2%, glycosylceramides 0.0003-0.003%, FIG. 1
  effect on the expression of claudin-1 (% with respect to T+, inhibited control = 100%): significantly reversed the inhibiting effect of the mixture of alarmins on the expression of claudin-1
